# Measured values taken from article PMC5762309 (Oncotarget, 2017).
# Like-named read-outs stand apart in the source and are kept apart here.
# Assays:
# [1] = system: FLT3(ITD,F691L); experiment: KINOMEScan; format: binding; design: dose or concentration left out as unconfirmed
# [2] = biological target: T1, KIT V559D (Homo sapiens, UniProt P10721, V559D); experiment: KIT auto-phosphorylation in transformed BaF3 cells; details: 2h
# Target sequence in this assay (P10721 546-976 V559D): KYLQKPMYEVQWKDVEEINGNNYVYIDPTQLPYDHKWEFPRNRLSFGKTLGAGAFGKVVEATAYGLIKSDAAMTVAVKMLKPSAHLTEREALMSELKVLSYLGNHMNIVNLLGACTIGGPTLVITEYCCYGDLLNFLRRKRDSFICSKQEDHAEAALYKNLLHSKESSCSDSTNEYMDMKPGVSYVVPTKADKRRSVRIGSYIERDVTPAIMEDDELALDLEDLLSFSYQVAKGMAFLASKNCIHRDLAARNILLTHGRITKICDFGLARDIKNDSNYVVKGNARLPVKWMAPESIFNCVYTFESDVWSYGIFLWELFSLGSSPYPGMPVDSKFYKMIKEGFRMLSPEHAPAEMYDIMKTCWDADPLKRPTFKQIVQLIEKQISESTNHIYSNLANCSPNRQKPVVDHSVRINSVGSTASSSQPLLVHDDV
# [3] = biological target: T2, JAK1(JH2domain-pseudokinase) (Homo sapiens, UniProt P23458); experiment: KINOMEScan; format: binding; design: dose or concentration left out as unconfirmed
# T2 construct: JAK1(JH2domain-pseudokinase); purchased DiscoverX KINOMEscan
# [4] = biological target: T3, CDK11 (Homo sapiens, UniProt Q9BWU1); experiment: KINOMEScan; format: binding; design: dose or concentration left out as unconfirmed
# T3 construct: purchased DiscoverX KINOMEscan
# [5] = biological target: KIT A829P (Homo sapiens, UniProt P10721, A829P); experiment: KIT auto-phosphorylation in transformed BaF3 cells
# [6] = system: CSF1R transformed BaF3 cells; experiment: Anti-proliferation assay, transformed BaF3 cells; format: cell-based; details: Mus musculus
# Protocol: Then we used the DiscoverX’s KINOMEScan platform to further examine CHMFL-KIT-031’s kinome-wide selectivity profile. […] Besides the strong binding to V559D, it also bound strongly to KIT wt, L576P and A829P.
# Cells were grown in 96-well culture plates (2500/well). The compounds of various concentrations were added into the plates. Cell proliferation was determined after treatment with compounds for 72 hours. Cell viability was measured using the CellTiter–Glo assay (Promega, USA), according to the manufacturer’s instructions, and luminescence was measured in a multi-label reader (Envision, PerkinElmer, USA). Data were normalized to control groups (DMSO) and represented by the mean of three independent measurements with standard error <20%. GI50 values were calculated using Prism 5.0 (GraphPad Software, San Diego, CA).
# [7] = biological target: T4, SYK (Homo sapiens, UniProt P43405); experiment: KINOMEScan; format: binding; design: dose or concentration left out as unconfirmed
# T4 construct: purchased DiscoverX KINOMEscan
# [8] = biological target: T5, EPHA5 (Homo sapiens, UniProt P54756); experiment: KINOMEScan; format: binding; design: dose or concentration left out as unconfirmed
# T5 construct: purchased DiscoverX KINOMEscan
# [9] = biological target: T6, SIK (Homo sapiens, UniProt P57059); experiment: KINOMEScan; format: binding; design: dose or concentration left out as unconfirmed
# T6 construct: purchased DiscoverX KINOMEscan
# [10] = biological target: T7, JAK1(JH1domain-catalytic) (Homo sapiens, UniProt P23458); experiment: KINOMEScan; format: binding; design: dose or concentration left out as unconfirmed
# T7 construct: JAK1(JH1domain-catalytic); purchased DiscoverX KINOMEscan
# [11] = system: FLT3(ITD); experiment: KINOMEScan; format: binding; design: dose or concentration left out as unconfirmed
# [12] = system: BaF3; experiment: Anti-proliferation assay, parental BaF3 cells; format: cell-based; details: Mus musculus, 72 hours, CellTiter-Glo
# Protocol: The KIT mutant isogenic BaF3 cells lines and Colo320DM cells were cultured in RPMI 1640 media (Corning, USA) with 10% fetal bovine serum (FBS) and supplemented with 2% L-glutamine 1% penicillin/streptomycin, the BaF3 cell line was cultured in RPMI 1640 media (Corning, USA) with 1% IL-3, 10% fetal bovine serum (FBS) and supplemented with 2% L-glutamine 1% penicillin/streptomycin. All cell lines were maintained in culture media at 37°C with 5% CO2.
# [13] = biological target: T8, QSK (Homo sapiens, UniProt Q9Y2K2); experiment: KINOMEScan; format: binding; design: dose or concentration left out as unconfirmed
# T8 construct: purchased DiscoverX KINOMEscan
# [14] = biological target: T9, EGFR(L747-E749del, A750P) (Homo sapiens, UniProt P00533, A750P/DEL747-749); experiment: KINOMEScan; format: binding; design: dose or concentration left out as unconfirmed
# T9 construct: purchased DiscoverX KINOMEscan
# [15] = biological target: T1, KIT V559D; experiment: Kd determination by MST; format: binding; design: Kit V559D encoding residues 545-976 with His tag; His tag; made in house; host or cells: SF9 insect cells (baculovirus); details: purified protein
# [16] = biological target: T10, LOK (Homo sapiens, UniProt O94804); experiment: KINOMEScan; format: binding; design: dose or concentration left out as unconfirmed
# T10 construct: purchased DiscoverX KINOMEscan
# [17] = biological target: T11, KIT wt (Homo sapiens, UniProt P10721); experiment: ADP-Glo biochemical assay; design: wt KIT residues 544-935 with a His tag; His tag; made in house; host or cells: SF9 insect cells (baculovirus); details: purified kinase protein, 100 μM ATP
# [18] = biological target: T12, PFTK1 (Homo sapiens, UniProt O94921); experiment: KINOMEScan; format: binding; design: dose or concentration left out as unconfirmed
# T12 construct: purchased DiscoverX KINOMEscan
# [19] = biological target: T13, CDK3 (Homo sapiens, UniProt Q00526); experiment: KINOMEScan; format: binding; design: dose or concentration left out as unconfirmed
# T13 construct: purchased DiscoverX KINOMEscan
# [20] = biological target: T11, KIT wt; experiment: Kd determination by MST; format: binding; design: wt KIT residues 544-935 with a His tag; His tag; made in house; host or cells: SF9 insect cells (baculovirus); details: purified protein
# [21] = biological target: T14, PIKFYVE (Homo sapiens, UniProt Q9Y2I7); experiment: KINOMEScan; format: binding; design: dose or concentration left out as unconfirmed
# T14 construct: purchased DiscoverX KINOMEscan
# T11 sequence (P10721 544-935): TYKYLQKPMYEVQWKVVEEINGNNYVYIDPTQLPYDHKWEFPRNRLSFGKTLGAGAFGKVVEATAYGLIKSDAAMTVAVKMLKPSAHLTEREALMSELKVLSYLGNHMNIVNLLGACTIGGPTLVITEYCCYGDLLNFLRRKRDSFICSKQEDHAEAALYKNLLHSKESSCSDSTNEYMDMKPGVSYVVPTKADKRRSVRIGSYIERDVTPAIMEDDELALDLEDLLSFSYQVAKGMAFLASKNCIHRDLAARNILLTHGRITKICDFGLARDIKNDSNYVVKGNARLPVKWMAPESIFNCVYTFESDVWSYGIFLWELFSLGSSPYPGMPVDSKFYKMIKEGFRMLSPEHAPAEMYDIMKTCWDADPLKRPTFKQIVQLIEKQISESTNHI
# Chain of KIT A829P (P10721 26-976 A829P): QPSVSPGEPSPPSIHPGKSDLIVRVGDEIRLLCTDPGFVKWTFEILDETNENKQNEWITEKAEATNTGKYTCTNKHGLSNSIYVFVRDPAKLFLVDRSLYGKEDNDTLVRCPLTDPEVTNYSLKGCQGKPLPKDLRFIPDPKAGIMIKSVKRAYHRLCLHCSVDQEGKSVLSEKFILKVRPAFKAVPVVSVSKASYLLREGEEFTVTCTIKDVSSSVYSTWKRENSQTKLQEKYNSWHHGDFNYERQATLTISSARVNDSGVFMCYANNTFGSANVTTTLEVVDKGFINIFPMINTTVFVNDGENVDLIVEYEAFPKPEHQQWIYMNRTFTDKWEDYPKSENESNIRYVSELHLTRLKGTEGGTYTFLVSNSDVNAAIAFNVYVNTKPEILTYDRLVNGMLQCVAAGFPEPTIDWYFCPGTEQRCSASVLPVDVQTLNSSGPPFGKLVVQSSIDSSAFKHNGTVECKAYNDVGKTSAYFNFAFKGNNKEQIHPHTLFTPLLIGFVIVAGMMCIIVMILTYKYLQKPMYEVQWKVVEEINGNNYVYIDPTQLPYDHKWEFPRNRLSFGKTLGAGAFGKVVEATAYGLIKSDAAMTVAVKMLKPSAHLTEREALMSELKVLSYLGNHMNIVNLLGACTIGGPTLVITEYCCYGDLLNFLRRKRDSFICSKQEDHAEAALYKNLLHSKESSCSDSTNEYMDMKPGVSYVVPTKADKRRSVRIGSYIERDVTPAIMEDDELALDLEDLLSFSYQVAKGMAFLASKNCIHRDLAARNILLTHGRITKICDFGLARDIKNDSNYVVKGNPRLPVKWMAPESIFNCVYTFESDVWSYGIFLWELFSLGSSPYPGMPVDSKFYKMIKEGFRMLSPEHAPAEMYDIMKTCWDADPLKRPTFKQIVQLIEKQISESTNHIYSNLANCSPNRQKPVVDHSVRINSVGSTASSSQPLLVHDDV
# T10 sequence (O94804 whole entry): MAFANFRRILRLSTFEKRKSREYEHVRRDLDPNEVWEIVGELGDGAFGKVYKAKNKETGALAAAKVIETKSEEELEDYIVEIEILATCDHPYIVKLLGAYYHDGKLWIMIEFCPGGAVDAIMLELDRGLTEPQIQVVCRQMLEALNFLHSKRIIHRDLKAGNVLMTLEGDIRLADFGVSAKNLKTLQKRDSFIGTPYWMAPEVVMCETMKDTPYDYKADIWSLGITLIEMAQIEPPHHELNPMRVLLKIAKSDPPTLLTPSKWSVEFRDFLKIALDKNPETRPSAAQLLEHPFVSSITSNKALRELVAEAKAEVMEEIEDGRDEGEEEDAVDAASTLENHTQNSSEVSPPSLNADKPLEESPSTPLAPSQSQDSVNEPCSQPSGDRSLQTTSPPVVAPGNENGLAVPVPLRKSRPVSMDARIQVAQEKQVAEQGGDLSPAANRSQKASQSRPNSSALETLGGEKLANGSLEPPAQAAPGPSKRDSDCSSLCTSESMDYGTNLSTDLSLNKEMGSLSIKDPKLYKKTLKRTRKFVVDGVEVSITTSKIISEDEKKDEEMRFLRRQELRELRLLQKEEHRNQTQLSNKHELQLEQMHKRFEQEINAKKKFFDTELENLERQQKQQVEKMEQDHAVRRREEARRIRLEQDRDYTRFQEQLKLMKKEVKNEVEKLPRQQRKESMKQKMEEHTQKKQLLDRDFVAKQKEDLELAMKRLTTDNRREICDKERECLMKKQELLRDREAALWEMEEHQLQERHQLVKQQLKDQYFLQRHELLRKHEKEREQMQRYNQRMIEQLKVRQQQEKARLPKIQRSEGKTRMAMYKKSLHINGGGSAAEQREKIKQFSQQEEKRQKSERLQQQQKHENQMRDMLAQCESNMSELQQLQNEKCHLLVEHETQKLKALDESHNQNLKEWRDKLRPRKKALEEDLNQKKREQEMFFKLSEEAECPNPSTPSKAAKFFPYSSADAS
# T12 sequence (O94921 whole entry): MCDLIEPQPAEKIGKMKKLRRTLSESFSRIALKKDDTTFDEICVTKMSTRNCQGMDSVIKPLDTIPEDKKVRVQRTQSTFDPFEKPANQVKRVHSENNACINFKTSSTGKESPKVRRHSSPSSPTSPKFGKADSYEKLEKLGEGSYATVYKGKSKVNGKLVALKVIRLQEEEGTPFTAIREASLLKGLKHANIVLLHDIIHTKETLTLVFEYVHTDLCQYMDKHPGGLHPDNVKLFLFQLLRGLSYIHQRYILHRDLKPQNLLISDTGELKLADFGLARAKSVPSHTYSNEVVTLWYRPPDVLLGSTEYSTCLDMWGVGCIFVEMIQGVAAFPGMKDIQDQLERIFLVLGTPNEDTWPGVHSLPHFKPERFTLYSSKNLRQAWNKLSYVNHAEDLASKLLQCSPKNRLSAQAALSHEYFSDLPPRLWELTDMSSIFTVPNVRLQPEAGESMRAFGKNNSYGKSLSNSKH
# T13 sequence (Q00526 whole entry): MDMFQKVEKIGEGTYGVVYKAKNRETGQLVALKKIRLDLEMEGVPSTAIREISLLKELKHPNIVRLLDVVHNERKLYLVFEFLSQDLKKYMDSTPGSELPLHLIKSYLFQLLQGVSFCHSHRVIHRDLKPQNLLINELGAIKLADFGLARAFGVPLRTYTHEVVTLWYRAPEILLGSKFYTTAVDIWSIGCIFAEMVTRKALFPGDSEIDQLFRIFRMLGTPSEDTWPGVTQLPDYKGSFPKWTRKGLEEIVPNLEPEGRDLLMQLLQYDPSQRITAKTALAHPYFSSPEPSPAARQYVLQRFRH
# T5 sequence (P54756 25-1037): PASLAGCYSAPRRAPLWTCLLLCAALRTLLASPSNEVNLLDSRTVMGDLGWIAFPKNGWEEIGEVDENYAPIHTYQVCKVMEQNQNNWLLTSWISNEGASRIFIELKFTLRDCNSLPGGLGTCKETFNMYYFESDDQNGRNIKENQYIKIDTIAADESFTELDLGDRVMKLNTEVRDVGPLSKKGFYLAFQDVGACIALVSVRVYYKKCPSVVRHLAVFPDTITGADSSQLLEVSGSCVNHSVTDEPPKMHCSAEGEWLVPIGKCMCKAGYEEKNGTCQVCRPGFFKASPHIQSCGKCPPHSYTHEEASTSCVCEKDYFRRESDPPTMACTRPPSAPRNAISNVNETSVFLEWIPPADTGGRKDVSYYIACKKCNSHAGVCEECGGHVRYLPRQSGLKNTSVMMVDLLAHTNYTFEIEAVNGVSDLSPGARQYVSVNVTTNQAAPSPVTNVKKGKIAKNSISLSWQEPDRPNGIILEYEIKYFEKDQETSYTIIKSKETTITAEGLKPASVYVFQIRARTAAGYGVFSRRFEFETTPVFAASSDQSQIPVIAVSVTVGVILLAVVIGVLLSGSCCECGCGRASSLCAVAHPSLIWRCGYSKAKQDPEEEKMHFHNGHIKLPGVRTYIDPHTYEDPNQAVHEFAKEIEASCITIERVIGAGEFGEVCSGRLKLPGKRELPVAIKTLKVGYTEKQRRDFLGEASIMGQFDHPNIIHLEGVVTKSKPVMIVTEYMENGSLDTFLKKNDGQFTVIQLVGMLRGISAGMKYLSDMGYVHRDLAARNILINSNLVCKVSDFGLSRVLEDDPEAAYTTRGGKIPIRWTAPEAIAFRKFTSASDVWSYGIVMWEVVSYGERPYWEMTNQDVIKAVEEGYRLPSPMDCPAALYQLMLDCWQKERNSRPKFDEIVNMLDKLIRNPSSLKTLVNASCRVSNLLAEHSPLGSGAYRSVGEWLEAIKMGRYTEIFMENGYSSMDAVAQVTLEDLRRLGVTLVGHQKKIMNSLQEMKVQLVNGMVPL
# T2 sequence (P23458 583-855 limits assumed): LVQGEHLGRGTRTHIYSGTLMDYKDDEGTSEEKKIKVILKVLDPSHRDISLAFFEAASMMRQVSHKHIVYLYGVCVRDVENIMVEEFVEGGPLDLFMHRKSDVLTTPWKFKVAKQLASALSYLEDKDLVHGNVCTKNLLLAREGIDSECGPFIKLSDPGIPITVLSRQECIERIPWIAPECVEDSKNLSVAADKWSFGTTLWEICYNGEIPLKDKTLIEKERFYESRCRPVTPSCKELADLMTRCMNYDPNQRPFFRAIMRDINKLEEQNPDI
smiles,measurement,setting,value
COc1cc(C(=O)NCC(=O)Nc2ccc3c(/C=C/c4ccccn4)n[nH]c3c2)cc(OC)c1OC [CHMFL-KIT-031],KINOMEScan profiling value,[1],91
same,EC50,[2]; EC50 pY703 auto-phosphorylation,151 nM
same,EC50,[2]; EC50 pY719 auto-phosphorylation,137 nM
same,EC50,[2]; EC50 pY823 auto-phosphorylation,118 nM
same,KINOMEScan profiling value,[3],85
same,KINOMEScan profiling value,[4],59
same,EC50,[5],> 10000 nM
same,EC50,"[5]; read-out: EC50 pY719 auto-phosphorylation, KIT A829P transformed BaF3 cells, 2h",> 10000 nM
same,EC50,"[5]; read-out: EC50 pY823 auto-phosphorylation, KIT A829P transformed BaF3 cells, 2h",> 10000 nM
same,GI50,[6],2400 nM
same,KINOMEScan profiling value,[7],100
same,KINOMEScan profiling value,[8],100
same,KINOMEScan profiling value,[9],100
same,KINOMEScan profiling value,[10],87
same,KINOMEScan profiling value,[11],44
same,GI50,[12],> 10000 nM
same,KINOMEScan profiling value,[13],82
same,KINOMEScan profiling value,[14],100
same,Kd,[15],266 nM
same,KINOMEScan profiling value,[16],96
same,IC50,[17],168 nM
same,KINOMEScan profiling value,[18],100
same,KINOMEScan profiling value,[19],100
same,Kd,[20],6640 nM
same,KINOMEScan profiling value,[21],87
